Assay results published in US4374840A, “Certain phenyl or pyridyl-propanol-amines containing alkyl-nitrate moieties” (Kowa Company, Ltd., priority 1980, dated 1983).

Experiments:
[1] = Test [III]: left ventricular end diastolic pressure (LVEDP) in anesthetized dogs; format: in vivo; conditions: anesthetized mongrel dogs, 20 μg/kg i.v.
Experimental: (§1) Mongrel dogs were anesthetized by intravenous administration of 30 mg/kg of pentobarbital, and examined under artifical respiration for the following items.
(1) Left ventricular end diastolic pressure (LVEDP)
Measured by advancing a catheter transducer to the left ventricle.
(§2) Dose and Method of Administration:
(§3) Each of the compounds shown in Tables 2 to 4 was dissolved in 0.1 N hydrochloric acid, and intravenously administered in a dose of 20 μg/kg.

[2] = Test [I]: blood pressure in pentobarbital-anesthetized dogs, i.v.; format: in vivo; set-up: key to duration of hypotensive action (mark (*): especially longlasting): +: a reduction of less than 20%; ++: a reduction of 20 to 50%; +++: a reduction of more than 50%; (*): The hypotensive action is especially longlasting; conditions: anesthetized adult dogs, 20 μg/kg i.v.; for inhibition in vivo at 0.02 mg/kg: Canis lupus familiaris, iv, read-out: Reduction in blood pressure
Experimental: (§4) Adult dogs were anesthetized by intravenous administration of 30 mg/kg of pentobarbital, and examined under artificial respiration for the action of the compound of this invention on blood pressure and heart rate.
A catheter was inserted into the femoral artery, and connected to a pressure transducer for measurement of the blood pressure.
as §2
(§5) The test drug was dissolved in 0.1 N hydrochloric acid, and administered intravenously in a dose of 20 μg/kg.
(§6) The numbered compounds in the following tables correspond to the compounds obtained in the correspondingly numbered Examples given hereinbelow.

[3] = Test [I]: heart rate in pentobarbital-anesthetized dogs, i.v.; format: in vivo; conditions: Canis lupus familiaris, iv; anesthetized adult dogs, 20 μg/kg i.v.; read-out: Reduction in heart rate
Experimental: as §4
Measured by pulse pressure changes.
as §2, §5, §6

[4] = Test [III]: coronary blood flow in anesthetized dogs; format: in vivo; conditions: anesthetized mongrel dogs, 20 μg/kg i.v.
Experimental: as §1
Measured by setting an electro magnetic flow meter probe in the left circumflex branch.
as §2, §3

[5] = test system: isolated atrial muscle of a guinea pig; experiment: Test [II]: antagonistic action against isoproterenol on isolated atrial muscle (β-blocking action); conditions: 10^-9 to 4×10^-4 mole, control drug propranolol hydrochloride
Experimental: The isolated atrial muscle of a guinea pig was used, and its contractile force and heart rate were recorded. Thus, the antagonistic action of the test drug against isoproterenol was examined. The drug was used in a concentration of 10^-9 to 4×10^-4 mole. As a control drug, propranolol hydrochloride was used.

[6] = Test [III]: common carotid blood flow in anesthetized dogs; format: in vivo; conditions: anesthetized mongrel dogs, 20 μg/kg i.v.
Experimental: as §1
(3) Common carotid blood flow
Measured by setting an electromagnetic flow probe at the common carotid artery.
as §2, §3

| Compound | Decrease rate (%) in LVEDP [1] | inhibition in vivo at 0.02 mg/kg [2] | inhibition in vivo at 0.02 mg/kg [3] | Increase rate (%) in coronary flow [4] | antagonistic action against isoproterenol, compared with propranolol hydrochloride [5] | also measured |
| --- | --- | --- | --- | --- | --- | --- |
| CC(C)NCC(O)COc1cccc(OCCO[N+](=O)[O-])c1 (stereo not shown) [Compound 1, 1-iso-Propylamino-3-[3-(2-nitratoethoxy)phenoxy]-2-propanol] | .dwnarw..dwnarw..dwnarw. (a decrease of more than 40%) | – | – | – | – | – |
| CC(C)NCC(O)COc1ccccc1OCCO[N+](=O)[O-] (stereo not shown) [Compound 2, 1-iso-Propylamino-3-[2-(2-nitrotoethoxy)phenoxy]-2-propanol] | – | 20 to 50% | 20 to 50% | .uparw..uparw. (an increase of more than 30%) | – | – |
| COc1ccc(OCC(O)CNC(C)C)cc1OCCO[N+](=O)[O-] (stereo not shown) [Compound 3, 1-iso-Propylamino-3-[[4-methoxy-3-(2-nitratoethoxy)]phenoxy]-2-propanol] | – | – | – | – | same degree of action as the control drug | – |
| COc1ccc(C(O)CNC(C)CCc2ccccc2)cc1OCCO[N+](=O)[O-] (stereo not shown) [Compound 4, 1-[4-methoxy-3-(2-nitratoethoxy)phenyl]-2-(1-methyl-3-phenylpropyl)aminoethanol] | – | – | – | – | same degree of action as the control drug | – |
| CC(C)NCC(O)COc1ccc(OCCO[N+](=O)[O-])cc1 (stereo not shown) [Compound 6, 1-iso-Propylamino-3-[4-(2-nitratoethoxy)phenoxy]-2-propanol] | .dwnarw..dwnarw. (a decrease of 20 to 40%) | > 50% | > 50% | .uparw..uparw. (an increase of more than 30%) | – | duration of hypotensive action (mark (*): especially longlasting) [2]: (*); Increase rate (%) in flow in the common carotid artery [6]: .uparw..uparw. (an increase of more than 30%) |
| CC(C)NCC(O)COc1ccc(OCCCO[N+](=O)[O-])cc1 (stereo not shown) [Compound 7, 1-iso-Propylamino-3-[4-(3-nitratopropoxy)phenoxy]-2-propanol] | .dwnarw..dwnarw..dwnarw. (a decrease of more than 40%) | 20 to 50% | > 50% | .uparw..uparw. (an increase of more than 30%) | – | Increase rate (%) in flow in the common carotid artery [6]: .uparw..uparw. (an increase of more than 30%) |
| CC(C)NCC(O)COc1ccccc1OCCCO[N+](=O)[O-] (stereo not shown) [Compound 8, 1-iso-Propylamino-3-[2-(3-nitratopropoxy)phenoxy]-2-propanol] | – | – | – | – | same degree of action as the control drug | – |
| COc1ccc(OCCO[N+](=O)[O-])cc1OCC(O)CNC(C)C (stereo not shown) [Compound 13, 1-iso-Propylamino-3-[2-methoxy-5-(2-nitratoethoxy)phenoxy]-2-propanol] | – | – | – | – | same degree of action as the control drug | – |
| CC(CCc1ccccc1)NCC(O)c1ccccc1OCCO[N+](=O)[O-] (stereo not shown) [Compound 14, 1-[2-(2-Nitratoethoxy)phenyl]-2-(1-methyl-3-phenylpropyl)aminoethanol] | – | – | – | – | same degree of action as the control drug | – |
| CC(C)NCC(O)COc1cccc(OCCO[N+](=O)[O-])n1 (stereo not shown) [Compound 15, 1-iso-Propylamino-3-[6-(2-nitratoethoxy)-2-pyridyloxy]-2-propanol] | – | – | – | – | same degree of action as the control drug | – |
| COc1cc(OCCO[N+](=O)[O-])ccc1OCC(O)CNC(C)C (stereo not shown) [Compound 17, 1-iso-Propylamino-3-[2-methoxy-4-(2-nitratoethoxy)phenoxy]-2-propanol] | – | – | – | – | same degree of action as the control drug | – |
| C=CCOc1cc(OCCO[N+](=O)[O-])ccc1OCC(O)CNC(C)C (stereo not shown) [Compound 23, 1-iso-Propylamino-3-[2-allyloxy-4-(2-nitratoethoxy)phenoxy]-2-propanol] | .dwnarw..dwnarw. (a decrease of 20 to 40%) | 20 to 50% | > 50% | – | – | – |
| CCC(CC)NCC(O)COc1cccc(OCCCO[N+](=O)[O-])c1 (stereo not shown) [Compound 26, 1-(1-Ethylpropyl)amino-3-[3-(3-nitratopropoxy)phenoxy]-2-propanol] | – | – | – | .uparw. (an increase of 30% or less) | – | Increase rate (%) in flow in the common carotid artery [6]: .uparw. (an increase of 30% or less) |
| CC(C)NCC(O)COc1ccccc1OCCCCCCO[N+](=O)[O-] (stereo not shown) [Compound 32, 1-iso-Propylamino-3-[2-(6-nitratohexyloxy)phenoxy]-2-propanol] | – | – | – | .uparw. (an increase of 30% or less) | – | – |
| C=CCOc1cc(OCCO[N+](=O)[O-])c(Cl)cc1OCC(O)CNC(C)C (stereo not shown) [Compound 33, 1-iso-Propylamino-3-[2-allyloxy-5-chloro-4-(2-nitratoethoxy)phenoxy]-2-propanol] | .dwnarw. (a decrease of less than 20%) | 20 to 50% | 20 to 50% | .uparw. (an increase of 30% or less) | – | duration of hypotensive action (mark (*): especially longlasting) [2]: (*); Increase rate (%) in flow in the common carotid artery [6]: .uparw. (an increase of 30% or less) |
| CC(C)NCC(O)COc1ccc(OCCO[N+](=O)[O-])c(Cl)c1 (stereo not shown) [Compound 34, 1-iso-Propylamino-3-[3-chloro-4-(2-nitratoethoxy)phenoxy]-2-propanol] | – | – | – | .uparw. (an increase of 30% or less) | – | Increase rate (%) in flow in the common carotid artery [6]: .uparw. (an increase of 30% or less) |
| CC(C)NCC(O)COc1ccc(OCCO[N+](=O)[O-])cc1OCCO[N+](=O)[O-] (stereo not shown) [Compound 50, 1-iso-Propylamino-3-[2,4-di-(2-nitratoethoxy)phenoxy]-2-propanol] | .dwnarw..dwnarw. (a decrease of 20 to 40%) | > 50% | > 50% | – | – | – |
| CC(C)NCC(O)COc1ccc(OCCO[N+](=O)[O-])c(C(N)=O)c1 (stereo not shown) [Compound 55, 1-iso-Propylamino-3-[3-carbamoyl-4-(2-nitratoethoxy)phenoxy]-2-propanol] | – | 20 to 50% | > 50% | – | – | – |
| CC(C)NCC(O)COc1ccc(CCCO[N+](=O)[O-])cc1 (stereo not shown) [Compound 61, 1-iso-Propylamino-3-[4-(3-nitratopropyl)phenoxy]-2-propanol] | – | > 50% | > 50% | – | – | Increase rate (%) in flow in the common carotid artery [6]: .uparw. (an increase of 30% or less) |
| CC(C)NCC(O)COc1ccc(CCCCO[N+](=O)[O-])cc1 (stereo not shown) [Compound 62, 1-iso-Propylamino-3-[4-(4-nitratobutyl)phenoxy]-2-propanol] | .dwnarw. (a decrease of less than 20%) | > 50% | 20 to 50% | – | – | – |
| CC(C)NCC(O)COc1c(OCCO[N+](=O)[O-])cccc1OCCO[N+](=O)[O-] (stereo not shown) [Compound 63, 1-iso-Propylamino-3-[2,6-di(2-nitratoethoxy)phenoxy]-2-propanol] | – | > 50% | > 50% | – | – | – |
